Measured values from PMC11603275, “Synthesis and Antimicrobial Evaluation of New 1,2,4-Triazolo[1,5-a]pyrimidine-Based Derivatives as Dual Inhibitors of Bacterial DNA Gyrase and DHFR” (ACS Omega, 2024).

What was measured:
[1] = test system: E. coli; assay: Modified disk diffusion, inhibition zone; conditions: E. coli (G-)
[2] = test system: P. aeruginosa; assay: Modified disk diffusion, inhibition zone; conditions: P. aeruginosa (G-)
[3] = test system: S. aureus; assay: Modified disk diffusion, inhibition zone; conditions: S. aureus (G+)
[4] = test system: B. subtilis; assay: Modified disk diffusion, inhibition zone; conditions: B. subtilis (G+)
[5] = test system: A. flavus; assay: Modified disk diffusion, inhibition zone; conditions: A. flavus (fungi)
[6] = test system: C. albicans; assay: Modified disk diffusion, inhibition zone; conditions: C. albicans (fungi)
[7] = test system: Gram-positive and Gram-negative bacteria (B. subtilis, S. aureus, E. coli, P. aeruginosa); assay: Disk diffusion, inhibition zones summarised over the tested bacterial strains; conditions: over the four tested bacterial strains

SMILES | Inhibition Zone (IZ) Diameter [1] | Inhibition Zone (IZ) Diameter [2] | Inhibition Zone (IZ) Diameter [3] | Inhibition Zone (IZ) Diameter [4] | melting point | Inhibition Zone (IZ) Diameter [5] | Inhibition Zone (IZ) Diameter [6] | Inhibition Zone (IZ) Diameter [7]
c1ccc(-c2cc(-c3ccccc3)n3nc(-c4ccccc4)nc3n2)cc1 [Compound 9a, 2,5,7-Triphenyl-1,2,4-triazolo[1,5-a]pyrimidine] | 14 mm/mL | 12 mm/mL | 14 | 12 mm/mL | 210 to 212 °C | 7 mm/mL | 10 mm | –
COc1ccc(-c2cc(-c3ccc(Cl)cc3)nc3nc(-c4ccccc4)nn23)cc1 [Compound 9h, 5-(4-Chlorophenyl)-7-(4-methoxyphenyl)-2-phenyl-1,2,4-triazolo[1,5-a]pyrimidine] | 11 mm/mL | 12 mm/mL | – | 9 mm/mL | – | 5 mm/mL | – | –
Clc1ccc(-c2cc(-c3ccc(Cl)cc3)n3nc(-c4ccccc4)nc3n2)cc1 [Compound 9f, 5,7-Bis(4-Chlorophenyl)-2-phenyl-1,2,4-triazolo[1,5-a]pyrimidine] | 15 mm/mL | 18 mm/mL | 15 | 14 mm/mL | 202 to 204 °C | 8 mm/mL | 12 mm | –
Clc1ccc(-c2cc(-c3ccccc3)nc3nc(-c4ccccc4)nn23)cc1 [Compound 9b, 7-(4-Chlorophenyl)-2,5-diphenyl-1,2,4-triazolo[1,5-a]pyrimidine] | 23 mm/mL | 24 mm/mL | 23 | 21 mm/mL | 214 to 216 °C | 11 mm/mL | 15 mm | –
Cc1ccc(-c2cc(-c3ccc(C)cc3)n3nc(-c4ccccc4)nc3n2)cc1 [Compound 9k, 2-Phenyl-5,7-di-p-tolyl-1,2,4-triazolo[1,5-a]pyrimidine] | 30 mm/mL | 30 mm/mL | 32 | 32 mm/mL | 224 to 226 °C | 22 mm/mL | 25 mm | 30–32 mm
Clc1ccc(-c2cc(-c3ccccc3)n3nc(-c4ccccc4)nc3n2)cc1 [Compound 9e, 5-(4-Chlorophenyl)-2,7-diphenyl-1,2,4-triazolo[1,5-a]pyrimidine] | 12 mm/mL | 11 mm/mL | 12 | 10 mm/mL | 260 to 262 °C | 5 mm/mL | 8 mm | –
COc1ccc(-c2cc(-c3ccccc3)n3nc(-c4ccccc4)nc3n2)cc1 [Compound 9m, 5-(4-Methoxyphenyl)-2,7-diphenyl-1,2,4-triazolo[1,5-a]pyrimidine] | 30 mm/mL | 30 mm/mL | 32 | 31 mm/mL | 222 to 224 °C | 20 mm/mL | 23 mm | approximately 30 mm
Cc1ccc(-c2cc(-c3ccc(Cl)cc3)nc3nc(-c4ccccc4)nn23)cc1 [Compound 9g, 5-(4-Chlorophenyl)-2-phenyl-7-p-tolyl-1,2,4-triazolo[1,5-a]pyrimidine] | 20 mm/mL | 18 mm/mL | 20 | 19 mm/mL | 248 to 250 °C | 9.0 mm/mL | 11 mm | 18–20 mm
Cc1ccc(-c2cc(-c3ccc(Cl)cc3)n3nc(-c4ccccc4)nc3n2)cc1 [Compound 9j, 7-(4-Chlorophenyl)-2-phenyl-5-p-tolyl-1,2,4-triazolo[1,5-a]-pyrimidine] | 20 mm/mL | 20 mm/mL | – | 20 mm/mL | – | 10 mm/mL | – | –
COc1ccc(-c2cc(-c3ccc(C)cc3)nc3nc(-c4ccccc4)nn23)cc1 [Compound 9l, 7-(4-Methoxyphenyl)-2-phenyl-5-p-tolyl-1,2,4-triazolo[1,5-a]pyrimidine] | 23 mm/mL | 22 mm/mL | 26 | 23 mm/mL | 222 to 224 °C | 15 mm/mL | 17 mm | –
Cc1ccc(-c2cc(-c3ccccc3)n3nc(-c4ccccc4)nc3n2)cc1 [Compound 9i, 2,7-Diphenyl-5-p-tolyl-1,2,4-triazolo[1,5-a]pyrimidine] | 30 mm/mL | 29 mm/mL | – | 28 mm/mL | – | 17 mm/mL | – | –
Cc1ccc(-c2cc(-c3ccccc3)nc3nc(-c4ccccc4)nn23)cc1 [Compound 9c, 2,5-Diphenyl-7-p-tolyl-1,2,4-triazolo[1,5-a]pyrimidine] | 13 mm/mL | 13 mm/mL | 15 | 11 mm/mL | 218 to 220 °C | 7 mm/mL | 10 mm | –
